Consider 21 molecules from patent US20250223259A1, “PROTEASE INHIBITORS FOR TREATING OR PREVENTING CORONAVIRUS INFECTION” (Merck Sharp & Dohme LLC, priority 2022, published 2025).

The target in the assay is SARS2 coronavirus 3CL protease (Severe acute respiratory syndrome coronavirus 2 (2019-nCoV) (SARS-CoV-2), UniProt P0DTD1). As to the kind of experiment: SARS2 Coronavirus 3CL Protease Assay (FRET). The following applies: SARS2 3CLPro FRET assay; 5 nM enzyme, 30 min pre-incubation with compound, 15 uM peptide substrate, 4 h room temperature. The class given is biochemical.

Regarding `CNC(=O)C(=O)[C@H](CCC(C)(F)F)NC(=O)[C@@H]1[C@H]2CC(C)(C)O[C@H]2CN1C(=O)[C@@H](NC(=O)OC)C(C)(C)C` [Example 86, methyl ((S)-1-((3aR,4S,6aR)-4-(((S)-6,6-difluoro-1-(methylamino)-1,2-dioxoheptan-3-yl)carbamoyl)-2,2-dimethylhexahydro-5H-furo[2,3-c]pyrrol-5-yl)-3,3-dimethyl-1-oxobutan-2-yl)carbamate], the IC50 amounted to 20 nM. Under `CNC(=O)C(=O)[C@H](CCC(C)(F)F)NC(=O)[C@@H]1[C@H]2CCC[C@H]2CN1C(=O)[C@H](CC(F)(F)F)NC(=O)OC` [Example 87, methyl ((S)-1-((1S,3aR,6aS)-1-(((S)-6,6-difluoro-1-(methylamino)-1,2-dioxoheptan-3-yl)carbamoyl)hexahydrocyclopenta[c]pyrrol-2(1H)-yl)-4,4,4-trifluoro-1-oxobutan-2-yl)carbamate] stands 7 nM; under `CNC(=O)C(=O)[C@H](CCC(C)(F)F)NC(=O)[C@@H]1[C@H]2CCC[C@H]2CN1C(=O)C(NC(=O)OC)C1(C(F)(F)F)CC1` (stereo partly drawn) [Example 88, methyl (2-((1S,3aR,6aS)-1-(((S)-6,6-difluoro-1-(methylamino)-1,2-dioxoheptan-3-yl)carbamoyl)hexahydrocyclopenta[c]pyrrol-2(1H)-yl)-2-oxo-1-(1-(trifluoromethyl)cyclopropy 1)ethyl)carbamate], 21 nM. In the case of `CNC(=O)C(=O)[C@H](CCC(C)(F)F)NC(=O)[C@@H]1[C@@H]2CC[C@@H](C2)CN1C(=O)[C@@H](NC(=O)OC)C(C)(C)C` [Example 89, methyl ((S)-1-((1R,2S,5S)-2-(((S)-6,6-difluoro-1-(methylamino)-1,2-dioxoheptan-3-yl)carbamoyl)-3-azabicyclo[3.2.1]octan-3-yl)-3,3-dimethyl-1-oxobutan-2-yl)carbamate] it was 13 nM; in that of `CNC(=O)C(=O)[C@H](CCC(C)(F)F)NC(=O)[C@@H]1CC(F)(F)[C@@H](C)CN1C(=O)[C@@H](NC(=O)OC)C(C)(C)C` [Example 91, methyl ((S)-1-((2S,5S)-2-(((S)-6,6-difluoro-1-(methylamino)-1,2-dioxoheptan-3-yl)carbamoyl)-4,4-difluoro-5-methylpiperidin-1-yl)-3,3-dimethyl-1-oxobutan-2-yl)carbamate], 19 nM. Regarding `CNC(=O)C(=O)[C@H](CCC(C)(F)F)NC(=O)[C@@H]1[C@@H]2[C@H](CN1C(=O)[C@@H](NC(=O)OC)C(C)(C)C)CC2(F)F` [Example 92, methyl ((S)-1-((1S,2S,5R)-2-(((S)-6,6-difluoro-1-(methylamino)-1,2-dioxoheptan-3-yl)carbamoyl)-7,7-difluoro-3-azabicyclo[3.2.0]heptan-3-yl)-3,3-dimethyl-1-oxobutan-2-yl)carbamate], the IC50 came to 29 nM. Under `COC(=O)N[C@H](C(=O)N1CC[C@]2(C[C@H]1C(=O)N[C@@H](CCC(C)(F)F)C(=O)C(=O)NC1CC1)CC2(F)F)C(C)(C)C` [Example 94, methyl ((S)-1-((3S,5S)-5-(((S)-1-(cyclopropylamino)-6,6-difluoro-1,2-dioxoheptan-3-yl)carbamoyl)-1,1-difluoro-6-azaspiro[2.5]octan-6-yl)-3,3-dimethyl-1-oxobutan-2-yl)carbamate] stands 9 nM; under `COC(=O)N[C@H](C(=O)N1CC[C@@H](C)C[C@H]1C(=O)N[C@@H](CCC(C)(F)F)C(=O)C(=O)NC1CC1)C(C)(C)C` [Example 96, methyl ((S)-1-((2S,4R)-2-(((S)-1-(cyclopropylamino)-6,6-difluoro-1,2-dioxoheptan-3-yl)carbamoyl)-4-methylpiperidin-1-yl)-3,3-dimethyl-1-oxobutan-2-yl)carbamate], 15 nM. Take `CCNC(=O)C(=O)[C@H](CCC(C)(F)F)NC(=O)[C@@H]1[C@H]2CCC[C@H]2CN1C(=O)[C@@H](NC(=O)OC)C(C)(C)C` [Example 101, methyl ((S)-1-((1S,3aR,6aS)-1-(((S)-1-(ethylamino)-6,6-difluoro-1,2-dioxoheptan-3-yl)carbamoyl)hexahydrocyclopenta[c]pyrrol-2(1H)-yl)-3,3-dimethyl-1-oxobutan-2-yl)carbamate]: the IC50 worked out at 22 nM. Under `COCCNC(=O)C(=O)[C@H](CCC(C)(F)F)NC(=O)[C@@H]1[C@H]2CCC[C@H]2CN1C(=O)[C@@H](NC(=O)OC)C(C)(C)C` [Example 102, methyl ((S)-1-((1S,3aR,6aS)-1-(((S)-6,6-difluoro-1-((2-methoxyethyl)amino)-1,2-dioxoheptan-3-yl)carbamoyl)hexahydrocyclopenta[c]pyrrol-2(1H)-yl)-3,3-dimethyl-1-oxobutan-2-yl)carbamate] stands 61 nM. In the case of `COC(=O)N[C@H](C(=O)N1CC(F)(F)CC[C@H]1C(=O)N[C@@H](CCC(C)(F)F)C(=O)C(=O)NC1CC1)C(C)(C)C` [Example 104, methyl ((S)-1-((S)-2-(((S)-1-(cyclopropylamino)-6,6-difluoro-1,2-dioxoheptan-3-yl)carbamoyl)-5,5-difluoropiperidin-1-yl)-3,3-dimethyl-1-oxobutan-2-yl)carbamate], the half-maximal inhibitory concentration (IC50) was 740 nM. For the molecule `COC(=O)N[C@H](C(=O)N1C[C@H]2[C@@H]([C@H]1C(=O)N[C@@H](CCC(C)(F)F)C(=O)C(=O)NC1CC1)C2(F)F)C(C)(C)C` [Example 111, methyl ((S)-1-((1S,2S,5R)-2-(((S)-1-(cyclopropylamino)-6,6-difluoro-1,2-dioxoheptan-3-yl)carbamoyl)-6,6-difluoro-3-azabicyclo[3.1.0]hexan-3-yl)-3,3-dimethyl-1-oxobutan-2-yl)carbamate], the half-inhibitory concentration (IC50) was 88 nM. In the case of `COC(=O)N[C@H](C(=O)N1C[C@H](OC(F)F)C[C@H]1C(=O)N[C@@H](CCC(C)(F)F)C(=O)C(=O)NC1CC1)C(C)(C)C` [Example 113, methyl ((S)-1-((2S,4R)-2-(((S)-1-(cyclopropylamino)-6,6-difluoro-1,2-dioxoheptan-3-yl)carbamoyl)-4-(difluoromethoxy)pyrrolidin-1-yl)-3,3-dimethyl-1-oxobutan-2-yl)carbamate] it was 46 nM; in that of `CNC(=O)C(=O)[C@H](CCC(C)(F)F)NC(=O)[C@@H]1[C@H]2CCC[C@H]2CN1C(=O)[C@@H](NC(=O)OC)C12CC(C(F)(F)F)(C1)C2` [Example 114, methyl ((S)-2-((1S,3aR,6aS)-1-(((S)-6,6-difluoro-1-(methylamino)-1,2-dioxoheptan-3-yl)carbamoyl)hexahydrocyclopenta[c]pyrrol-2(1H)-yl)-2-oxo-1-(3-(trifluoromethyl)bicyclo[1.1 1]pentan-1-yl)ethyl)carbamate], 27 nM.

On to `CNC(=O)C(=O)[C@H](CCC(C)(F)F)NC(=O)[C@@H]1[C@H]2CCC[C@H]2CN1C(=O)[C@@H](NC(=O)OC)C(C)(C)O` [Example 117, methyl ((S)-1-((1S,3aR,6aS)-1-(((S)-6,6-difluoro-1-(methylamino)-1,2-dioxoheptan-3-yl)carbamoyl)hexahydrocyclopenta[c]pyrrol-2(1H)-yl)-3-hydroxy-3-methyl-1-oxobutan-2-yl)carbamate], for which the IC50 was found to be 14 nM. In the case of `COC(=O)N[C@H](C(=O)N1C[C@@H]2CCC[C@@H]2[C@H]1C(=O)N[C@@H](CCC(C)(F)F)C(=O)C(=O)NC1CC1)[C@@H](C)OC` [Example 118, methyl ((2S,3R)-1-((1S,3aR,6aS)-1-(((S)-1-(cyclopropylamino)-6,6-difluoro-1,2-dioxoheptan-3-yl)carbamoyl)hexahydrocyclopenta[c]pyrrol-2(1H)-yl)-3-methoxy-1-oxobutan-2-yl)carbamate] it was 14 nM; in that of `COC(=O)N[C@H](C(=O)N1C[C@@H]2CCC[C@@H]2[C@H]1C(=O)N[C@@H](CCC(C)(F)F)C(=O)C(=O)NCC(F)(F)F)C(C)(C)C` [Example 119, methyl ((S)-1-((1S,3aR,6aS)-1-(((S)-6,6-difluoro-1,2-dioxo-1-((2,2,2-trifluoroethyl)amino)heptan-3-yl)carbamoyl)hexahydrocyclopenta[c]pyrrol-2(1H)-yl)-3,3-dimethyl-1-oxobutan-2-yl)carbamate], 77 nM; in that of `CCOC(=O)N[C@H](C(=O)N1C[C@@H]2CCC[C@@H]2[C@H]1C(=O)N[C@@H](CCC(C)(F)F)C(=O)C(=O)NC)C(C)(C)C` [Example 120, ethyl ((S)-1-((1S,3aR,6aS)-1-(((S)-6,6-difluoro-1-(methylamino)-1,2-dioxoheptan-3-yl)carbamoyl)hexahydrocyclopenta[c]pyrrol-2(1H)-yl)-3,3-dimethyl-1-oxobutan-2-yl)carbamate], 21 nM. In the case of `CNC(=O)C(=O)[C@H](CCC(C)(F)F)NC(=O)[C@@H]1[C@H]2CCC[C@H]2CN1C(=O)[C@@H](NC(=O)OCC(F)F)C(C)(C)C` [Example 121, 2,2-difluoroethyl ((S)-1-((1S,3aR,6aS)-1-(((S)-6,6-difluoro-1-(methylamino)-1,2-dioxoheptan-3-yl)carbamoyl)hexahydrocyclopenta[c]pyrrol-2(1H)-yl)-3,3-dimethyl-1-oxobutan-2-yl)carbamate] it was 15 nM; in that of `CNC(=O)C(=O)[C@H](CCC(C)(F)F)NC(=O)[C@@H]1[C@H]2CCC[C@H]2CN1C(=O)[C@@H](NC(=O)OCC(F)(F)F)C(C)(C)C` [Example 122, 2,2,2-trifluoroethyl ((S)-1-((1S,3aR,6aS)-1-(((S)-6,6-difluoro-1-(methylamino)-1,2-dioxoheptan-3-yl)carbamoyl)hexahydrocyclopenta[c]pyrrol-2(1H)-yl)-3,3-dimethyl-1-oxobutan-2-yl)carbamate], 34 nM.

For the molecule `COC(=O)N[C@@H](Cc1noc(C)n1)C(=O)N1C[C@H]2[C@@H]([C@H]1C(=O)N[C@@H](CCC(C)(F)F)C(=O)C(=O)NC1CC1)C2(C)C` [Example 123, methyl ((S)-1-((1R,2S,5S)-2-(((S)-1-(cyclopropylamino)-6,6-difluoro-1,2-dioxoheptan-3-yl)carbamoyl)-6,6-dimethyl-3-azabicyclo[3.1.0]hexan-3-yl)-3-(5-methyl-1,2,4-oxadiazol-3-yl)-1-oxopropan-2-yl)carbamate], the concentration for half-maximal inhibition (IC50) came out at 29 nM.

Broadly, the IC50 is the concentration that inhibits the measured activity by half.
